Laboratory results reported in patent publication US8378107B2, “Heteroaryl antagonists of prostaglandin D2 receptors” (Panmira Pharmaceuticals, LLC, priority 2008, dated 2013).

Molecular target: T1, human DP2 receptor (Homo sapiens, UniProt Q9Y5Y4)
T1 construct: expressed in transfected cells; membrane preparation
T1 sequence (Q9Y5Y4 1-395): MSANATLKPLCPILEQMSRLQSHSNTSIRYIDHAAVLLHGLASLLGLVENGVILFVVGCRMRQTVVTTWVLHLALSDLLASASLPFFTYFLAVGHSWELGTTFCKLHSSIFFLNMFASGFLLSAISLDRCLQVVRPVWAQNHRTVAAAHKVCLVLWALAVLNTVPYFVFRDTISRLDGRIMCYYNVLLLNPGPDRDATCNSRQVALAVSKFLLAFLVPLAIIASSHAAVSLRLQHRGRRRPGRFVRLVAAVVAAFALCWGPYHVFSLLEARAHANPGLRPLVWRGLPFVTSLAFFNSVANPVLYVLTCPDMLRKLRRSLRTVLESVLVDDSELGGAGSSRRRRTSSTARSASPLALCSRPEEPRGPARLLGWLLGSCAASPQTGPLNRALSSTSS
Test: DP2/CRTH2 radioligand binding assay using [3H]PGD2
Conditions: membranes of HEK293 cells expressing recombinant human DP2, 1 nM [3H]PGD2; read-out: hDP2
Description: The ability of a compound to bind to the human DP2 receptor is assessed via a radioligand binding assay using [^3H]PGD2. HEK293 cells stably expressing recombinant human DP2 are resuspended in 10 mM Hepes, 7.4 containing 1 mM DTT, lysed and centrifuged at 75,000×g to pellet the membranes. The membranes are resuspended in 10 mM Hepes, 7.4 containing 1 mM DTT and 10% glycerol to approximately 5 mg protein/ml. Membranes (2-10 μg protein/well) are incubated in 96-well plates with 1 nM [^3H]PGD2 and test compound in Assay Buffer (50 mM Hepes, 10 mM MnCl2, 1 mM EDTA, plus or minus 0.2% human serum albumin, pH 7.4) for 60 minutes at room temperature. The reactions are terminated by rapid filtration through Whatman GF/C glass fibre filter plates. The filter plates were pre-soaked in 0.33% polyethylenimine for 30 minutes at room temperature then washed in Wash Buffer (50 mM Hepes, 0.5 M NaCl pH 7.4) prior to harvesting. After harvesting, the filter plates are washed 3 times with 1 ml cold Wash Buffer then dried. Scintillant is then added to the plates and the radioactivity retained on the filters is determined on a Packard TopCount (Perkin Elmer). Specific binding is determined as total radioactive binding minus non-specific binding in the presence of 10 μM PGD2. IC50s were determined using GraphPad prism analysis of drug titration curves.

SMILES | IC50 [nM]
COc1ccc(CC(=O)O)cc1-c1ncccc1CNC(=O)OCc1ccccc1 [Compound 1-1, {3-[3-(Benzyloxycarbonylamino-methyl)-pyridin-2-yl]-4-methoxy-phenyl}-acetic acid] | > 1000
CCN(Cc1cc(C)cnc1-c1cc(CC(=O)O)ccc1OC)C(=O)C1CC1 [Compound 1-2, (3-{3-[(Cyclopropanecarbonyl-ethyl-amino)-methyl]-5-methyl-pyridin-2-yl}-4-methoxy-phenyl)-acetic acid] | 300 to 1000
CCN(Cc1cc(C)cnc1-c1cc(CC(=O)O)ccc1OC)C(=O)CCc1ccccc1 [Compound 1-3, [3-(3-{[Ethyl-(3-phenyl-propionyl)-amino]-methyl}-5-methyl-pyridin-2-yl)-4-methoxy-phenyl]-acetic acid] | < 300
CCN(Cc1cc(C)cnc1-c1cc(CC(=O)O)ccc1OC)C(=O)NCc1ccccc1 [Compound 1-4, {3-[3-(3-Benzyl-1-ethyl-ureidomethyl)-5-methyl-pyridin-2-yl]-4-methoxy-phenyl}-acetic acid] | < 300
CCN(Cc1cc2ccccc2nc1-c1cc(CC(=O)O)ccc1OC)C(=O)C1CC1 [Compound 2-1, (3-{3-[(Cyclopropanecarbonyl-ethyl-amino)-methyl]-quinolin-2-yl}-4-methoxy-phenyl)-acetic acid] | 300 to 1000
CCN(Cc1cc2ccccc2nc1-c1cc(CC(=O)O)ccc1OC)C(C)=O [Compound 2-2, (3-{3-[(Acetyl-ethyl-amino)-methyl]-quinolin-2-yl}-4-methoxy-phenyl)-acetic acid] | > 1000

Second part, the compound after the results:

IC50 [nM] | SMILES
> 1000 | CCN(Cc1cc2ccccc2nc1-c1cc(CC(=O)O)ccc1OC)C(=O)COC [Compound 2-3, [3-(3-{[Ethyl-(2-methoxy-acetyl)-amino]-methyl}-quinolin-2-yl)-4-methoxy-phenyl]-acetic acid]
< 300 | CCN(Cc1nc2ccccc2cc1-c1cc(CC(=O)O)ccc1OC)C(=O)C1CC1 [Compound 2-4, (3-{2-[(Cyclopropanecarbonyl-ethyl-amino)-methyl]-quinolin-3-yl}-4-methoxy-phenyl)-acetic acid]
< 300 | CCC(=O)N(CC)Cc1nc2ccccc2cc1-c1cc(CC(=O)O)ccc1OC [Compound 2-5, (3-{2-[(Ethyl-propionyl-amino)-methyl]-quinolin-3-yl}-4-methoxy-phenyl)-acetic acid]
< 300 | CCN(Cc1nc2ccccc2cc1-c1cc(CC(=O)O)ccc1OC)C(=O)COC [Compound 2-6, [3-(2-{[Ethyl-(2-methoxy-acetyl)-amino]-methyl}-quinolin-3-yl)-4-methoxy-phenyl]-acetic acid]
< 300 | COc1ccc(CC(=O)O)cc1-c1cc2ccccc2nc1CN(Cc1ccccc1)C(C)=O [Compound 2-7, (3-{2-[(Acetyl-benzyl-amino)-methyl]-quinolin-3-yl}-4-methoxy-phenyl)-acetic acid]
< 300 | COc1ccc(CC(=O)O)cc1-c1cc2ccccc2nc1CN(Cc1ccccc1)C(=O)C1CC1 [Compound 2-8, (3-{2-[(Benzyl-cyclopropanecarbonyl-amino)-methyl]-quinolin-3-yl}-4-methoxy-phenyl)-acetic acid]
300 to 1000 | O=C(O)CCn1c2c(c3ccccc31)C[C@H](NS(=O)(=O)c1ccc(F)cc1)CC2 [Ramatroban, reference compound]
